Test results as given in patent US20240018153A1, “BENZENESULFONAMIDE DERIVATIVES AND USES THEREOF” (2692372 ONTARIO, INC., priority 2020, published 2024).

Assays:
[1] = target: FGFR4 (Homo sapiens (Human), UniProt P22455); assay: HTRF KinEASE-TK kinase assay, FGFR4; type: biochemical; conditions: for IC50: dose response; for remaining activity at 1 µM: read-out: % FGFR4 Remaining activity vs DMSO (1 μM, 3 h); for remaining activity at 10 µM: read-out: % FGFR4 Remaining activity vs DMSO (10 μM, 3 h)
Experimental: (§1) Kinase activity was monitored using a HTRF® KinEASE-TK kit from Cisbio (62TK0PEC). […] FGFR-4 was purchased from Promega. 0.333 ng/ul FGFR4 (5.12 nM) was preincubated in the absence or presence of inhibitor at room temperature for 3 hours. Reaction with substrate was then initiated by adding biotinylated substrate and ATP. […] The reaction was terminated by adding 31.25 nM SA-XL665 and 100 fold diluted europium labelled antibody (Eu-Ab), diluted in 1× detection buffer that contained EDTA. After 60 min of incubation, the fluorescence emission was measured at 620 nm and 665 nm. The ratio of Em 665 nm to Em 620 nm was proportional to the amount of substrate phosphorylated by the kinase.

[2] = target: JAK3 (Homo sapiens (Human), UniProt P52333); assay: HTRF KinEASE-TK kinase assay, JAK3; type: biochemical; conditions: for IC50: dose response; for remaining activity at 1 µM: read-out: % JAK3 Remaining activity vs DMSO (1 μM, 3 h); for remaining activity at 10 µM: read-out: % JAK3 Remaining activity vs DMSO (10 μM, 3 h)
Experimental: as §1, with “JAK-3” for “FGFR-4”, “0.0133” for “0.333”, “JAK3 (0.21” for “FGFR4 (5.12”

[3] = target: EGFR (Homo sapiens (Human), UniProt P00533); assay: HTRF KinEASE-TK kinase assay, EGFR; type: biochemical; conditions: 3 h preincubation; for remaining activity at 1 µM: 1 μM compound, read-out: % EGFR Remaining activity vs DMSO (1 μM, 3 h); for remaining activity at 10 µM: 10 μM compound, read-out: % EGFR Remaining activity vs DMSO (10 μM, 3 h)
Experimental: Kinase activity was monitored using a HTRF® KinEASE-TK kit from Cisbio (62TK0PEC). The buffer used was 1× kinase buffer supplemented with 2 mM MnCl2, 5 mM MgCl2, 1 mM TCEP and 100× diluted Supplementary Enzyme Buffer. EGFR was purchased from Promega. […] Reaction with substrate was then initiated by adding biotinylated substrate and ATP. […] After 60 min of incubation, the fluorescence emission was measured at 620 nm and 665 nm. The ratio of Em 665 nm to Em 620 nm was proportional to the amount of substrate phosphorylated by the kinase.
For initial screening, enzymes were pre incubated with compounds at 2 different concentrations (1 and 10 uM final) and 0.5% DMSO.

[4] = target: T1, BTK (Homo sapiens (Human), UniProt Q06187); assay: Ramos RA1 cell lysis and immunoassay, phospho-BTK (Y223) inhibition; type: cell-based; parameters: key: X: BTK bound and autophosphoration of BTK inhibited in cells; conditions: RAMOS cells
Experimental: Ramos RA 1 cells (ATCC) were cultured in RPMI-1640 media (Wisent) supplemented with 10% heat-inactivated FBS and 1% penicillin/streptomycin. Cells were seeded in 6-well plates at 1.71×10^6 cells/well and incubated at 37° C., 5% CO2 for 16 hours. Cells were treated with compound at the indicated concentrations or DMSO alone and incubated at 37° C., 5% CO2 for 24 hours. Cell suspensions were centrifugated at 1,400-1,600 RPM for 5 minutes at room temperature and supernatants were discarded. Cell pellets were resuspended with 1× RIPA buffer (Millipore) and incubated on ice for 15 minutes. Protein lysates were extracted by centrifugating at 20,000 RPM for 20 minutes at 4° C. Proteins were separated and total BTK protein levels were quantified by Simple Western Immunoassay (ProteinSimple) using the 12-230 kDa Jess Separation Module according to the manufacturer's protocol, using a protein concentration of 0.25 μg/μl and antibodies targeting BTK (clone #D3H5, Cell Signalling) and β-Actin (clone #AC-15, Santa Cruz) diluted to 1:400 and 1:10, respectively, where the latter was used as a loading control. An equal ratio of rabbit and mouse HRP-conjugated secondary antibodies was used for detection. BTK protein levels were quantified relative to S-Actin loading levels and subsequently normalized to the DMSO control. Phosphorylated BTK levels were quantified using the Protein Normalization Assay Module for Jess (ProteinSimple) according to the manufacturer's protocol, using a protein concentration of 1.5 μg/μl and an antibody targeting pBTK (Y223) (Cell Signalling) diluted to 1:50. Phosphorylated BTK levels were quantified relative to the Protein Normalization Reagent and subsequently normalized to the DMSO control.

[5] = target: BMX (Homo sapiens (Human), UniProt P51813); assay: HTRF KinEASE-TK kinase assay, BMX; type: biochemical; conditions: for remaining activity at 1 µM: 1 uM compound; for remaining activity at 1 µM / remaining activity at 10 µM: 3 h preincubation; for remaining activity at 10 µM: 10 uM compound; for IC50: dose response
Experimental: as §1, with “BMX” for “FGFR-4”, “BMX (3.03” for “FGFR4 (5.12”, “The reaction” for “Reaction”, “Reaction” for “The reaction”

[6] = target: T1, BTK; assay: HTRF KinEASE-TK kinase assay, BTK; type: biochemical; conditions: 3 h preincubation; for remaining activity at 1 µM: 1 μM compound, read-out: % BTK Remaining activity vs DMSO (1 μM, 3 h); for remaining activity at 10 µM: 10 μM compound, read-out: % BTK Remaining activity vs DMSO (10 μM, 3 h)
Experimental: Kinase activity was monitored using a HTRF® KinEASE-TK kit from Cisbio (62TK0PEC). For BTK, the 1× kinase buffer was supplemented with 10 mM MnCl2, 5 mM MgCl2, 1 uM ATPγS, 1 mM TCEP and 100 fold diluted Supplementary Enzyme Buffer. BTK was purchased from Promega. […] Reaction with substrate was then initiated by adding biotinylated substrate and ATP and the reaction was allowed to proceed for 45 min. […] After 60 min of incubation, the fluorescence emission was measured at 620 nm and 665 nm. The ratio of Em 665 nm to Em 620 nm was proportional to the amount of substrate phosphorylated by the kinase.

Chain of EGFR (P00533 25-1210): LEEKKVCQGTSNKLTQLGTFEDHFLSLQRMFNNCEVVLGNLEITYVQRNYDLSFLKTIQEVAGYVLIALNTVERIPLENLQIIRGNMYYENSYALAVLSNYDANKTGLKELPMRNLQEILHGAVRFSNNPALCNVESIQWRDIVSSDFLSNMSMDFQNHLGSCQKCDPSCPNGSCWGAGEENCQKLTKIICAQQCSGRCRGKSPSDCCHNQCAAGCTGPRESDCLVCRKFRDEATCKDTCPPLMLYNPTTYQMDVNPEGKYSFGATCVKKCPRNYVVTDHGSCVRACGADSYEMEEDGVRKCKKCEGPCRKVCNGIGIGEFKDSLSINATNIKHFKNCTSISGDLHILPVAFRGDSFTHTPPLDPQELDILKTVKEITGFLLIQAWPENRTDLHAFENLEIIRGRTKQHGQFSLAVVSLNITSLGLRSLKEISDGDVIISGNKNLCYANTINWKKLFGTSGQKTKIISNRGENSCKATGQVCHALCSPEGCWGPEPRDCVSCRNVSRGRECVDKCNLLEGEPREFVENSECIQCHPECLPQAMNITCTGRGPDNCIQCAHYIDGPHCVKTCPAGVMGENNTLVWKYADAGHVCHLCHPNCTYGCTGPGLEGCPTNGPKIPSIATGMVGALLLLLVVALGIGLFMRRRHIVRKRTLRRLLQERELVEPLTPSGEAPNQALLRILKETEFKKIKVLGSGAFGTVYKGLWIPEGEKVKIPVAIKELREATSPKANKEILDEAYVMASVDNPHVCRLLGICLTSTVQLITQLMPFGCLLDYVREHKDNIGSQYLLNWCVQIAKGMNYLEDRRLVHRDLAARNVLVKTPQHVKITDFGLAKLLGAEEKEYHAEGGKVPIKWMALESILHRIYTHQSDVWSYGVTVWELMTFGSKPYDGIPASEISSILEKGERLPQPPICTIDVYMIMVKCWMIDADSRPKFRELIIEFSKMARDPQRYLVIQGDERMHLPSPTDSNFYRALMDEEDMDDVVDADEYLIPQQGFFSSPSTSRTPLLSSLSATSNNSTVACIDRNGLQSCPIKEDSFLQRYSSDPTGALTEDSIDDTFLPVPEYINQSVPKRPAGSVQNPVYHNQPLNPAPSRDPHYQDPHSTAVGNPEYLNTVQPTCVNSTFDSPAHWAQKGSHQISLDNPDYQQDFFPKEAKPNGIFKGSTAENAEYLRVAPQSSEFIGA
Chain of JAK3 (P52333 781-1124): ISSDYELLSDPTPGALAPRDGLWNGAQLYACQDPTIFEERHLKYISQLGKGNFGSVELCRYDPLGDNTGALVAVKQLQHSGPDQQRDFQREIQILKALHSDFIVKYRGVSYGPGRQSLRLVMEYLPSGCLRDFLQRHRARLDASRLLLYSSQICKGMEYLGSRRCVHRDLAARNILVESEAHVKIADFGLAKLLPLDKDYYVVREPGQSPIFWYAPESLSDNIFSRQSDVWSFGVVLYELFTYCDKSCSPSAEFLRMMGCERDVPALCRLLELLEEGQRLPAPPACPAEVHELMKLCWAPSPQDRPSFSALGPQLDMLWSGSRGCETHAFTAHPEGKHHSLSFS
Chain of BMX (P51813 whole entry): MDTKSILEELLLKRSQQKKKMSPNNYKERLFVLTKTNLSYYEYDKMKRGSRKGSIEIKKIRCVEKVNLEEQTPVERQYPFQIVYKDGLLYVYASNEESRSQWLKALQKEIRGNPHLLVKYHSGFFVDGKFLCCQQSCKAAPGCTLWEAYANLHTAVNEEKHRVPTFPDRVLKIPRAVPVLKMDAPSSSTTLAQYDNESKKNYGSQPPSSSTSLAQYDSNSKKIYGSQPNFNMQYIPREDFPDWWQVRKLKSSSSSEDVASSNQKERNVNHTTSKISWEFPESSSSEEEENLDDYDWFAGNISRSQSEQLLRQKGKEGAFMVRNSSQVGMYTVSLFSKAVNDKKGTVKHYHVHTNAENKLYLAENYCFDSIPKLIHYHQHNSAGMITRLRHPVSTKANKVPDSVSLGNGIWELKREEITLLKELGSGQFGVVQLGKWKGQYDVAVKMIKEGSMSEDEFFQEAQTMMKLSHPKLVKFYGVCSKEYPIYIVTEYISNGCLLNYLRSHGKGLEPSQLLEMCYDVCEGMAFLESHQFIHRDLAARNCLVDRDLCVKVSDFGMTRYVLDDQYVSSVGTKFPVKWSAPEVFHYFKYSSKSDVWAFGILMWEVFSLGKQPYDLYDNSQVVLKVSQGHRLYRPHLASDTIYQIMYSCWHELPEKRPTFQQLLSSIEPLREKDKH
Chain of FGFR4 (P22455 22-802): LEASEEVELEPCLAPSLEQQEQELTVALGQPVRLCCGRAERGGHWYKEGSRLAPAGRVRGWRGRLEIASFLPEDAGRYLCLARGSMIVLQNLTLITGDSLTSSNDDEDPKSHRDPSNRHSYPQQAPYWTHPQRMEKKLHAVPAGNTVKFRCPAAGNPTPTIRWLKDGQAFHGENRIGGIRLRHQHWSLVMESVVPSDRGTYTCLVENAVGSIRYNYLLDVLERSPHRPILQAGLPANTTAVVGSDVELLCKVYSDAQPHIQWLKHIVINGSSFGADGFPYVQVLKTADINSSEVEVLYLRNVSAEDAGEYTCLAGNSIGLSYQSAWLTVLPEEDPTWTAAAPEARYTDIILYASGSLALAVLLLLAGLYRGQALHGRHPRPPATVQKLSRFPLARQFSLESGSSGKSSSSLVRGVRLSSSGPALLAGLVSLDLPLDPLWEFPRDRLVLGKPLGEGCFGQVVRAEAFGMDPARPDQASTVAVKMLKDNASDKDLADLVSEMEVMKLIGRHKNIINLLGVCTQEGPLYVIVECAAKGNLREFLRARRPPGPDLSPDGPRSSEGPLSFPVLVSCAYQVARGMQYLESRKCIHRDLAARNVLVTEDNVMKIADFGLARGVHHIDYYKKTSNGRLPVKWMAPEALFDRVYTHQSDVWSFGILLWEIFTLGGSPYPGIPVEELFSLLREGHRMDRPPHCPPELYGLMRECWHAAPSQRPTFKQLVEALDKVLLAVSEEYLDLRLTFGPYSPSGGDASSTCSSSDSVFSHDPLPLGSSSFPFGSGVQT
T1 sequence (Q06187 whole entry): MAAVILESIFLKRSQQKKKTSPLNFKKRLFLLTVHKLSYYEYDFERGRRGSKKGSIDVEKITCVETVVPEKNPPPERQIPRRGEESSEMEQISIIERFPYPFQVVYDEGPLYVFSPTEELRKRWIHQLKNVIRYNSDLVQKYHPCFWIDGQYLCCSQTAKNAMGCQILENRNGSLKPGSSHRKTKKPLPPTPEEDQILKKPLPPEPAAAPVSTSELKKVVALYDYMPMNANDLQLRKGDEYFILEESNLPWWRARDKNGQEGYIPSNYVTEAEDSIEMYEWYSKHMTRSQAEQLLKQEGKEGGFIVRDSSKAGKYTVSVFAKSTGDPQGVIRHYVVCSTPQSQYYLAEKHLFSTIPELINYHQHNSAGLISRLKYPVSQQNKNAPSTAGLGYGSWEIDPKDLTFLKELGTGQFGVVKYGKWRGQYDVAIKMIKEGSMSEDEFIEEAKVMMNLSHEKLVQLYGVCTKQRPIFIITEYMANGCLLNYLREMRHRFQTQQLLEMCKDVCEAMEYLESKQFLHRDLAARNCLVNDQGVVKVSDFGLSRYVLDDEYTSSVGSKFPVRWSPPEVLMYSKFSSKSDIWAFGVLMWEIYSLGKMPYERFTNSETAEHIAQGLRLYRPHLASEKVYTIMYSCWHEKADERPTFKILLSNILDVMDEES

SMILES | IC50 [1] [nM] | remaining activity at 1 µM [1] [%] | remaining activity at 10 µM [1] [%] | IC50 [2] [nM] | remaining activity at 1 µM [2] [%] | remaining activity at 10 µM [2] [%] | remaining activity at 1 µM [3] [%] | remaining activity at 10 µM [3] [%] | pBTK inhibition (RAMOS, 24 h) ([4]; compound concentration 2.5 μM) | remaining activity at 1 µM [5] [%] | remaining activity at 10 µM [5] [%] | remaining activity at 1 µM [6] [%] | remaining activity at 10 µM [6] [%] | IC50 ([6]; dose response, read-out: BTK Inhibition IC50) [nM] | pBTK inhibition (RAMOS, 24 h) ([4]; compound concentration 1 μM) | IC50 [5] [nM] | pBTK inhibition (RAMOS, 24 h) ([4]; compound concentration 5 μM) | pBTK inhibition (RAMOS, 24 h) ([4]; compound concentration 10 μM)
Nc1ncnc2c1c(-c1ccc(Oc3ccccc3)cc1)nn2CCNS(=O)(=O)c1c(F)c(F)c(F)c(F)c1OCF [Compound I-25, N-(2-(4-amino-3-(4-phenoxyphenyl)-1H-pyrazolo[3,4-d]pyrimidin-1-yl)ethyl)-2,3,4,5-tetrafluoro-6-(fluoromethoxy)benzenesulfonamide] |  | 50 to 90 | < 50 |  | > 90 | 50 to 90 | > 90 | > 90 |  | < 50 | < 50 | < 50 | < 50 |  | X | < 1000 |  | 
Nc1ncnc2c1c(-c1ccc(Oc3ccccc3)cc1)nn2CCNS(=O)(=O)c1c(F)c(F)c(F)c(F)c1C(F)F [Compound I-22, N-(2-(4-amino-3-(4-phenoxyphenyl)-1H-pyrazolo[3,4-d]pyrimidin-1-yl)ethyl)-2-(difluoromethyl)-3,4,5,6-tetrafluorobenzenesulfonamide] |  | > 90 | < 50 |  | > 90 | 50 to 90 | > 90 | < 50 |  | < 50 | < 50 | < 50 | < 50 |  | X |  |  | 
Nc1ncnc2c1c(-c1ccc(Oc3ccccc3)cc1)nn2C1CCN(S(=O)(=O)c2c(F)c(F)c(F)c(F)c2OC(F)F)C1 (stereo in doubt) [Compound I-26, (R)-1-(1-((2-(difluoromethoxy)-3,4,5,6-tetrafluorophenyl)sulfonyl)pyrrolidin-3-yl)-3-(4-phenoxyphenyl)-1H-pyrazolo[3,4-d]pyrimidin-4-amine] | < 1000 | < 50 | < 50 |  | 50 to 90 | 50 to 90 | > 90 | 50 to 90 |  | < 50 | < 50 | < 50 | < 50 |  | X | < 1000 |  | 

Further lines, results first:

IC50 [1] [nM] | remaining activity at 1 µM [1] [%] | remaining activity at 10 µM [1] [%] | IC50 [2] [nM] | remaining activity at 1 µM [2] [%] | remaining activity at 10 µM [2] [%] | remaining activity at 1 µM [3] [%] | remaining activity at 10 µM [3] [%] | pBTK inhibition (RAMOS, 24 h) ([4]; compound concentration 2.5 μM) | remaining activity at 1 µM [5] [%] | remaining activity at 10 µM [5] [%] | remaining activity at 1 µM [6] [%] | remaining activity at 10 µM [6] [%] | IC50 ([6]; dose response, read-out: BTK Inhibition IC50) [nM] | pBTK inhibition (RAMOS, 24 h) ([4]; compound concentration 1 μM) | IC50 [5] [nM] | pBTK inhibition (RAMOS, 24 h) ([4]; compound concentration 5 μM) | pBTK inhibition (RAMOS, 24 h) ([4]; compound concentration 10 μM) | SMILES
< 1000 | < 50 | < 50 | < 1000 | < 50 | < 50 | 50 to 90 | < 50 | X | < 50 | < 50 | < 50 | < 50 | < 1000 |  |  |  |  | COCCOc1ccc(Nc2ncc(F)c(Nc3cccc(NS(=O)(=O)c4c(F)c(F)c(F)c(F)c4C(F)(F)F)c3)n2)cc1 [Compound I-53, 2,3,4,5-tetrafluoro-N-(3-((5-fluoro-2-((4-(2-methoxyethoxy)phenyl)amino)pyrimidin-4-yl)amino)phenyl)-6-(trifluoromethyl)benzenesulfonamide]
< 1000 | < 50 | < 50 | > 1000 | < 50 | < 50 | > 90 | 50 to 90 |  | < 50 | < 50 | < 50 | < 50 |  |  |  | X |  | COCCOc1ccc(Nc2ncc(F)c(Nc3cccc(NS(=O)(=O)c4c(F)c(F)c(F)c(F)c4OC(F)F)c3)n2)cc1 [Compound I-54, 2-(difluoromethoxy)-3,4,5,6-tetrafluoro-N-(3-((5-fluoro-2-((4-(2-methoxyethoxy)phenyl)amino)pyrimidin-4-yl)amino)phenyl)benzenesulfonamide]
 | > 90 | < 50 |  | > 90 | 50 to 90 | > 90 | > 90 |  | < 50 | < 50 | 50 to 90 | < 50 |  |  |  |  | X | COCCOc1ccc(Nc2ncc(F)c(Nc3cccc(NS(=O)(=O)c4c(F)c(F)c(F)c(F)c4C(F)F)c3)n2)cc1 [Compound I-51, 2-(difluoromethyl)-3,4,5,6-tetrafluoro-N-(3-((5-fluoro-2-((4-(2-methoxyethoxy)phenyl)amino)pyrimidin-4-yl)amino)phenyl)benzenesulfonamide]
